Experimental data: US20240174634A1, “Aldehyde Dehydrogenase Inhibitors and Their Therapeutic Use” (priority 2020, published 2024)

Each molecule was assayed against T1, ALDH1A3 (Homo sapiens, UniProt P47895) (assay: Primary biochemical assay, NAD(P)H-Glo Detection System). Details: 30 min pre-incubation, propionaldehyde and NAD at Km.
T1 sequence (P47895 1-512): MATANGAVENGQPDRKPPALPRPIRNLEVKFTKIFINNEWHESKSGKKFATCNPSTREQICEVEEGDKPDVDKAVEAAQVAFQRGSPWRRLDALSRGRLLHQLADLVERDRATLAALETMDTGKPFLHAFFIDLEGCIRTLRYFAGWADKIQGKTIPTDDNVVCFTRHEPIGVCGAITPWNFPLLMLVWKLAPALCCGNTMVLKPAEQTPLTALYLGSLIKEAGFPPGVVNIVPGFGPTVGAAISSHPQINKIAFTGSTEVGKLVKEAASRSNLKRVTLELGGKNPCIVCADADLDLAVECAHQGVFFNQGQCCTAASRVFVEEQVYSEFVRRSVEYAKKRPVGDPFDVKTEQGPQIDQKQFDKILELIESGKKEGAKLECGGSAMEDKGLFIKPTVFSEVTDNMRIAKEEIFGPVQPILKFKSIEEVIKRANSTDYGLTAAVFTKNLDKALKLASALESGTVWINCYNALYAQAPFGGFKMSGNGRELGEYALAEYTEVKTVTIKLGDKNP
Design: His-tag; made in house; host or cells: E. coli Rosetta (DE3)
From the text: Cloning: Open reading frames corresponding to the protein coding sequences of full length human ALDH1A1 (Uniprot ID P00352), ALDH1A2 (094788) and ALDH1A3 (P47895) were polymerase chain reaction (PCR) amplified from human cDNA and inserted into the multi-cloning sites of the commercially available (Novagen) E. coli expression vectors pET47b (ALDH1A1, EcoRI restriction site; ALDH1A2, BamHI and EcoRI sites) or pET28a (ALDH1A3, NdeI and BamHI sites), using standard molecular genetic techniques. Recombinant DNA products were sequence verified prior to use in expression studies.
Expression: Expression constructs were transformed into the E. coli strain Rosetta (DE3) (Merck) and individual colonies used to inoculate 10 mL lysogen broth (LB) medium supplemented with kanamycin and chloramphenicol at 50 μg/mL and 34 μg/mL, respectively. Cultures were grown to saturation overnight at 37° C., prior to being used to sub-inoculate fresh 1 L LB medium cultures (plus antibiotics, as before). 1 L cultures were grown at 37° C., 200 rpm, throughout the day until the optical density at 600 nm (OD600) reached ˜0.8, at which point growth temperature was reduced to 18° C. and 1 mM isopropyl β-d-1-thiogalacto pyranoside (IPTG) added to induce protein expression.
Cultures were left overnight (at least 16 h) under these conditions and the following day harvested by centrifugation (4000 G, 10 minutes). Culture supernatant was discarded and cell pellets stored at −80° C. until further processing.
Purification: Cell pellets were thawed on ice, re-suspended in Ni Affinity Buffer A (20 mM HEPES pH 7.5, 300 mM NaCl, 20 mM imidazole, 1 mM tris(2-carboxyethyl)phosphine (TCEP)) with protease inhibitors (cOmplete Ultra protease inhibitor, Roche), and lysed by sonication. Lysates were clarified by centrifugation at 18,000 G, 4° C., for 40 minutes, and loaded directly onto a pre-equilibrated (Buffer A) 5 mL HisTrap Fast Flow column (GE Healthcare) by way of an AKTA Fast Protein Liquid Chromatography (FPLC) system. The column was sequentially treated with 6 column volumes (CV) 100% Buffer A, 8 CV of 90% Buffer A:10% Buffer B (20 mM 4-(2-hydroxyethyl)-1-piperazineethanesulfonic acid (HEPES) pH 7.5, 300 mM NaCl, 500 mM imidazole, 1 mM TCEP) and finally a linear gradient from 10-70% Buffer B over 8 CV to elute recombinant His-tagged protein. Relevant fractions (as measured by 280 nm absorbance) collected during elution were pooled and subjected to further purification by size exclusion chromatography (Superdex 200 26/600, GE Healthcare, running buffer 20 mM 2-(carbamoylmethylamino)ethanesulfonic acid (ACES) pH 7.5, 1 mM TCEP). Relevant fractions from this step were pooled, aliquoted, and stored at −80° C. until required for compound profiling assays.
Materials: ALDH2 was purchased from Abnova. Tris(hydroxymethyl)aminomethane (Tris) was purchased from MP Biomedicals. TCEP, ethylenediaminetetraacetic acid (EDTA), propionaldehyde, DMSO and Tween-20 were purchased from Sigma. Nicotinamide adenine dinucleotide (NAD) was obtained from Abcam. The NAD(P)H-Glo™ Detection System was purchased from Promega. White, non-binding surface, 384 well plates were supplied by Corning (#3574).
Method: Inhibition of ALDH1A3 was assessed using the NAD(P)H-Glo™ Detection System (Cat. No. G9062) from Promega. This assay detects the production of NADH from NAD by ALDH1A3 via the coupled enzymatic conversion of a proluciferin reductase substrate to generate a luminescent signal. Inhibition of ALDH1A3 by small molecule inhibitors will result in reduction or abrogation of luminescence signal increase above background. Inhibition of ALDH1A1, ALDH1A2 and ALDH2 (selectivity assays) were assessed using the same assay.
Compounds were dosed into Corning 384 well assay plates using an Echo acoustic dispenser to give 10 point curves in a 3-fold dilution series. Compounds were dispensed from a 20 mM DMSO stock and initially screened at a top concentration of 20 μM (ALDH1A3) or 250 μM (ALDH1A1, ALDH1A2 & ALDH2). […]

SMILES | IC50
O=C1CCc2cc(OCCN3CC(O)CC3c3cccc(F)c3)ccc2N1 (mixture of isomers) [ALDHI-2035, 6-[2-[2-(3-fluorophenyl)-4-hydroxy-pyrrolidin-1-yl]ethoxy]-3,4-dihydro-1H-quinolin-2-one] | < 100 nM
CC1CN(CCOc2ccc3c(c2)CCC(=O)N3)C(c2ccccc2)CO1 (mixture of isomers) [ALDHI-2042, 6-[2-(2-methyl-5-phenyl-morpholin-4-yl)ethoxy]-3,4-dihydro-1H-quinolin-2-one] | 100 to 1000 nM
O=C1CCc2cc(NC(=O)c3sc(N4CCOCC4)nc3-c3cccc(F)c3)ccc2N1 [ALDHI-1001, 4-(3-fluorophenyl)-2-morpholino-N-(2-oxo-3,4-dihydro-1H-quinolin-6-yl)thiazole-5-carboxamide] | < 100 nM
CN(C)c1nc(-c2cccc(F)c2)c(C(=O)Nc2ccc3c(c2)CCC(=O)N3)s1 [ALDHI-1002, 2-(dimethylamino)-4-(3-fluorophenyl)-N-(2-oxo-3,4-dihydro-1H-quinolin-6-yl)thiazole-5-carboxamide] | < 100 nM
O=C1CCc2cc(NC(=O)c3scnc3-c3cccc(F)c3)ccc2N1 [ALDHI-1003, 4-(3-fluorophenyl)-N-(2-oxo-3,4-dihydro-1H-quinolin-6-yl)thiazole-5-carboxamide] | < 100 nM
O=C1CCc2cc(NC(=O)c3sc(N4CC(O)C4)nc3-c3cccc(F)c3)ccc2N1 [ALDHI-1004, 4-(3-fluorophenyl)-2-(3-hydroxyazetidin-1-yl)-N-(2-oxo-3,4-dihydro-1H-quinolin-6-yl)thiazole-5-carboxamide] | < 100 nM
O=C1CCc2cc(NC(=O)c3sc(N4CCNCC4)nc3-c3cccc(F)c3)ccc2N1 [ALDHI-1005, 4-(3-fluorophenyl)-N-(2-oxo-3,4-dihydro-1H-quinolin-6-yl)-2-piperazin-1-yl-thiazole-5-carboxamide] | < 100 nM
O=C1CCc2cc(NC(=O)c3c[nH]nc3-c3cccc(F)c3)ccc2N1 [ALDHI-1006, 3-(3-fluorophenyl)-N-(2-oxo-1,2,3,4-tetrahydroquinolin-6-yl)-1H-pyrazole-4-carboxamide] | 100 to 1000 nM
O=C1CCc2cc(NC(=O)c3ccccc3-c3cccc(F)c3)ccc2N1 [ALDHI-1007, 3′-fluoro-N-(2-oxo-1,2,3,4-tetrahydroquinolin-6-yl)-[1,1′-biphenyl]-2-carboxamide] | 1000 to 10000 nM
Cc1noc(-c2ccccc2C(=O)Nc2ccc3c(c2)CCC(=O)N3)n1 [ALDHI-1008, 2-(3-methyl-1,2,4-oxadiazol-5-yl)-N-(2-oxo-1,2,3,4-tetrahydroquinolin-6-yl)benzamide] | 100 to 1000 nM
O=C1CCc2cc(NC(=O)c3ncsc3-c3cccnc3)ccc2N1 [ALDHI-1010, N-(2-oxo-3,4-dihydro-1H-quinolin-6-yl)-5-(3-pyridyl)thiazole-4-carboxamide] | 1000 to 10000 nM
O=C1CCc2cc(NC(=O)c3ncsc3-c3ccsc3)ccc2N1 [ALDHI-1011, N-(2-oxo-3,4-dihydro-1H-quinolin-6-yl)-5-(3-thienyl)thiazole-4-carboxamide] | 100 to 1000 nM
O=C1CCc2cc(NC(=O)c3scnc3-c3ccccc3Cl)ccc2N1 [ALDHI-1012, 4-(2-chlorophenyl)-N-(2-oxo-3,4-dihydro-1H-quinolin-6-yl)thiazole-5-carboxamide] | 1000 to 10000 nM
Cc1cccc(-c2ncsc2C(=O)Nc2ccc3c(c2)CCC(=O)N3)c1 [ALDHI-1013, 4-(m-tolyl)-N-(2-oxo-3,4-dihydro-1H-quinolin-6-yl)thiazole-5-carboxamide] | 1000 to 10000 nM
O=C1CCc2cc(NC(=O)c3ncsc3-c3cccc(F)c3)ccc2N1 [ALDHI-1014, 5-(3-fluorophenyl)-N-(2-oxo-3,4-dihydro-1H-quinolin-6-yl)thiazole-4-carboxamide] | 100 to 1000 nM
O=C1COc2cc(NC(=O)c3scnc3-c3cccc(F)c3)ccc2N1 [ALDHI-1016, 4-(3-fluorophenyl)-N-(3-oxo-4H-1,4-benzoxazin-7-yl)thiazole-5-carboxamide] | 100 to 1000 nM
O=C1CCc2cc(NC(=O)c3scnc3-c3ccc(F)cc3)ccc2N1 [ALDHI-1017, 4-(4-fluorophenyl)-N-(2-oxo-1,2,3,4-tetrahydroquinolin-6-yl)thiazole-5-carboxamide] | < 100 nM
O=C1CCc2cc(NC(=O)c3cncnc3-c3cccc(F)c3)ccc2N1 [ALDHI-1018, 4-(3-fluorophenyl)-N-(2-oxo-3,4-dihydro-1H-quinolin-6-yl)pyrimidine-5-carboxamide] | 100 to 1000 nM
O=C1CCc2cc(NC(=O)c3ocnc3-c3cccc(F)c3)ccc2N1 [ALDHI-1019, 4-(3-fluorophenyl)-N-(2-oxo-3,4-dihydro-1H-quinolin-6-yl)oxazole-5-carboxamide] | 100 to 1000 nM
O=C1CCc2cc(NC(=O)c3scnc3-c3ccccc3F)ccc2N1 [ALDHI-1021, 4-(2-fluorophenyl)-N-(2-oxo-3,4-dihydro-1H-quinolin-6-yl)thiazole-5-carboxamide] | < 100 nM
O=C1CCc2cc(NC(=O)c3sccc3-c3cccc(F)c3)ccc2N1 [ALDHI-1022, 3-(3-fluorophenyl)-N-(2-oxo-3,4-dihydro-1H-quinolin-6-yl)thiophene-2-carboxamide] | 100 to 1000 nM
O=C1CCc2cc(NC(=O)c3scnc3-c3cccs3)ccc2N1 [ALDHI-1023, N-(2-oxo-3,4-dihydro-1H-quinolin-6-yl)-4-(2-thienyl)thiazole-5-carboxamide] | < 100 nM
O=C1CCc2cc(OCCN3CCCC3c3cccc(F)c3)ccc2N1 (stereo not shown) [ALDHI-2001, 6-[2-[2-(3-fluorophenyl)pyrrolidin-1-yl]ethoxy]-3,4-dihydro-1H-quinolin-2-one] | < 100 nM
O=C1CCc2cc(OCCN3CCCC3c3ccccc3F)ccc2N1 (stereo not shown) [ALDHI-2002, 6-[2-[2-(2-fluorophenyl)pyrrolidin-1-yl]ethoxy]-3,4-dihydro-1H-quinolin-2-one] | < 100 nM
O=C1CCc2cc(OCCN3CCCC3c3ccc(F)cc3)ccc2N1 (stereo not shown) [ALDHI-2003, 6-[2-[2-(4-fluorophenyl)pyrrolidin-1-yl]ethoxy]-3,4-dihydro-1H-quinolin-2-one] | < 100 nM
O=C1CCc2cc(OCCN3CCCC3c3ccncc3)ccc2N1 (stereo not shown) [ALDHI-2004, 6-[2-[2-(4-pyridyl)pyrrolidin-1-yl]ethoxy]-3,4-dihydro-1H-quinolin-2-one] | 100 to 1000 nM
O=C1CCc2cc(OCCN3CCCC3c3cccnc3)ccc2N1 (stereo not shown) [ALDHI-2005, 6-[2-[2-(3-pyridyl)pyrrolidin-1-yl]ethoxy]-3,4-dihydro-1H-quinolin-2-one] | < 100 nM
O=C1CCc2cc(OCCN3CCCC3c3ccccn3)ccc2N1 (stereo not shown) [ALDHI-2006, 6-[2-[2-(2-pyridyl)pyrrolidin-1-yl]ethoxy]-3,4-dihydro-1H-quinolin-2-one] | 100 to 1000 nM
